Assay results: patent US6878713B2, “Generation triple-targeting, chiral, broad-spectrum antimicrobial 7-substituted piperidino-quinolone carboxylic acid derivatives, their preparation, compositions and use as medicaments” (Wockhardt Limited, priority 2001, dated 2005)
≈ marks a conversion by molar mass, not a printed value. Where two headings read alike, the source gives them in different places.

Experiments:
[1] = test system: MRSA 5027; experiment: Resistance to resistance development (sequential passages through drug-containing media); type: cell-based; details: Staphylococcus aureus
[2] = test system: Fluoroquinolone-Resistant Strains; experiment: In-vitro antimicrobial test (MIC, two-fold serial agar dilution, NCCLS), Table 18; type: cell-based
Description: (§1) The test method was in accordance with the standard NCCLS protocol (Methods for Dilution Antimicrobial Susceptibility Tests for Bacteria that grow Aerobicially, Approved Standards, M7-A5, Fifth Edition, January 2000).
(§2) The antibacterial activities (minimum inhibitory concentration: MIC, […]) were determined by using the two-fold serial agar dilution method recommended by NCCLS. The media used for preculture and main culture were Tryptic Soya broth (Difco) and Mueller Hinton medium (Difco), respectively. The Mueller Hinton agar was supplemented with 5% sheep blood for streptococci. Overnight cultures were diluted with buffered saline (pH 7.2) to the final cell density of 5×10^6-10^7 CFU/ml, and each bacterial suspension was applied with a replicator (Denley's multipoint inoculator, UK) onto a series of Mueller-Hinton agar plates containing antibacterial agents at various concentrations. Final inoculum was approximately 10^4 CFU/spot. The plates were incubated for 18 hrs at 37° C. The MIC was defined as the lowest concentration of an antibacterial agent that inhibits the development of visible microbial growth on agar.

[3] = test system: J 744 (mouse macrophage); experiment: Cytotoxicity test (Alamar blue), J 744 cells, Table 23; type: cell-based; details: 3 hrs drug exposure, further 96 hrs incubation
Description: Compounds were evaluated for their cytotoxic potential against two celllines viz. […] Cytotoxic drugs inhibit this reaction resulting into blue coloured well. Minimum drug concentration inhibiting Alamar blue color change i.e. resulting into blue coloured wells for a given drug is considered cytotoxic concentration.

[4] = test system: V79 (Chinese Hamster Lung); experiment: Cytotoxicity test (Alamar blue), V79 cells, Table 23; type: cell-based; details: 3 hrs drug exposure, further 96 hrs incubation
Description: Compounds were evaluated for their cytotoxic potential against two […] viz. […] Cells were grown for 3-4days in a culture flask using D-MEM (Dulbecco's Modified Eagle. […] Freshly grown cells were distributed in microtiter plates at a cell density of 10^5-10^6 cells/well and allowed to […] form monolayer by incubating the microtiter plate at […] for 24 hrs. […] Following 3 hrs. of drug exposure, cell were washed with D-MEM and incubated further for 96 hrs. Cytotoxic effects of drugs were monitored through daily microscopic observation and by ascertaining the metabolic status through redox indicator Alamar blue. Healthy actively metabolising cells bring about colour change of Alamar blue from blue to pink within an overnight incubation. Cytotoxic drugs inhibit this reaction resulting into blue coloured well. Minimum drug concentration inhibiting Alamar blue color change i.e. resulting into blue coloured wells for a given drug is considered cytotoxic concentration.

[5] = test system: Multidrug-Resistant (MDR) Pneumococcal Infections; experiment: In-vivo antimicrobial test, systemic infection model (mouse septicemia), Table 22; parameters: species or system Swiss male and female mice; details: oral dosing 1 hour and 5 hours post-infection, survival on day 7, strain resistant to β-lactams, macrolides and fluoroquinolones; for ED50: Streptococcus pneumoniae, po, read-out: ED50 p.o., MDR S. pneumoniae 718; for ED50 p.o., MDR S. pneumoniae 718: hydrochloride
Description: The in vivo efficacy was studied through mouse septicemia model of infection in Swiss male and female mice (4 weeks old, 20+2 g weight) using 6 animals in each group. Infective organisms were inoculated intraperitonially. Compound were administered by oral route 1 hour and 5 hours post-infection. […] Appropriate comparators were included in the study.

[6] = test system: Trovafloxacin-Resistant and Vancomycin-Resistant Enterococci; experiment: In-vitro antimicrobial test (MIC, two-fold serial agar dilution, NCCLS), Table 19; type: cell-based
Excerpt: The comparative antimicrobial activity of representative compounds, of the invention and reference compounds against various sensitive and resistant microorganisms is given in Tables 17 to 20. The test method was in accordance with the standard NCCLS protocol (Methods for Dilution Antimicrobial Susceptibility Tests for Bacteria that grow Aerobicially, Approved Standards, M7-A5, Fifth Edition, January 2000).
as §2

[7] = test system: Clinical Isolate MRSA 5076 with Mutations in DNA Gyrase and Topoisomerase IV as well as bearing an Efflux Pump; experiment: microbe, parasite or virus in culture; type: cell-based; details: for MIC: Staphylococcus aureus, ATCC 25293 / MRSA, read-out: MICs, S. aureus (sensitive) ATCC 25293
Description: as §1, §2

[8] = test system: Fluoroquinolone Sensitive Strains; experiment: In-vitro antimicrobial test (MIC, two-fold serial agar dilution, NCCLS), Table 17; type: cell-based
[9] = read-out: MIC against MRSA 5027, initially
[10] = read-out: MIC against MRSA 5027 after 10 passages in drug containing medium
[11] = Staphylococcus aureus, MRSA, MRSA 032
[12] = Streptococcus pneumoniae, FQ^R S. pneumoniae 718
[13] = Staphylococcus epidermidis, trovafloxacin-resistant methicillin-resistant S. epidermidis (MRSE) 110, 18 hrs at 37° C, read-out: MICs, Trova-Resist MRSE 110
[14] = vancomycin-resistant Enterococcus faecium (VRE) 336, 18 hrs at 37° C, read-out: MICs, VRE 336
[15] = Streptococcus mitis, Cipro^R S. mitis 938
[16] = Enterococcus faecalis, ATCC29212, E. faecalis ATCC 29212
[17] = Escherichia coli, ATCC25922, E. coli ATCC 25922
[18] = Pseudomonas aeruginosa, P. aeruginosa 27853
[19] = S. sanguis ATCC 10556 (Viridans Streptococci group)
[20] = Staphylococcus aureus, ATCC 25923 / MSSA, MSSA ATCC 25923
[21] = Streptococcus pneumoniae, ATCC49619, S. pneumoniae ATCC 49619
[22] = Cipro^R S. sanguis 941, hydrochloride

| SMILES | MIC [2, 11] [µg/mL] | MIC [2, 12] [µg/mL] | Cytotoxic concentration, J 744 Macrophage [3] [µg/mL] | Cytotoxic concentration, V 79 CHL [4] [µg/mL] | ED50 [5] [mg/kg] | MIC ([2]; Cipro^R S. sanguis 941) [µg/mL] | MIC [2, 15] [µg/mL] | MIC [8, 16] [µg/mL] | MIC [8, 17] [µg/mL] | MIC [8, 18] [µg/mL] | MIC [8, 19] [µg/mL] | MIC [8, 20] [µg/mL] | MIC [8, 21] [µg/mL] | also measured |
| --- | --- | --- | --- | --- | --- | --- | --- | --- | --- | --- | --- | --- | --- | --- |
| COc1c(N2CCC(N)C(C)(C)C2)c(F)cc2c(=O)c(C(=O)O)cn(C3CC3)c12.Cl (racemic) [Compound 18, (±)-1-Cyclopropyl-6-fluoro-1,4-dihydro-8-methoxy-7-(4-amino-3,3-dimethyl-1-piperidinyl)-4-oxo-quinoline-3-carboxylic acid hydrochloride] | 0.8 | 0.8 | >1000 | >1000 | 30 |  |  |  |  |  |  |  |  | MIC [1, 9]: 0.4 µg/mL; MIC [1, 10]: 0.4 µg/mL |
| Cc1c(N2CCC(O)C(C)(C)C2)c(F)cc2c(=O)c(C(=O)O)cn(C3CC3)c12 (racemic) [Compound 95, (±)-1-Cyclopropyl-6-fluoro-8-methyl-7-(4-hydroxy-3,3-dimethyl-1-piperidinyl)-1,4-dihydro-4-oxo-quinoline-3-carboxylic acid] | 0.2 (≈ 0.515 µM) | 0.8 (≈ 2.06 µM) | >1000 | >1000 |  | 0.4 (≈ 1.03 µM) | 0.4 (≈ 1.03 µM) | 0.05 (≈ 0.129 µM) | 0.2 (≈ 0.515 µM) | 3.12 (≈ 8.03 µM) | 0.025 (≈ 0.0644 µM) | 0.003 (≈ 0.00772 µM) | 0.025 (≈ 0.0644 µM) | MIC [6, 13]: 0.4 µg/mL (≈ 1.03 µM); MIC [6, 14]: 3.12 µg/mL (≈ 8.03 µM); MICs, MRSA 5076 + efflux inhibitor reserpine ([7]; MRSA 5076 with efflux inhibitor reserpine): 0.2 µg/mL; MIC [7]: 0.003 µg/mL (≈ 0.00772 µM) |
| Cc1c(N2CCC(N)C(C)(C)C2)c(F)cc2c(=O)c(C(=O)O)cn(C3CC3)c12.Cl (racemic) [Compound 102, (±)-1-Cyclopropyl-6-fluoro-1,4-dihydro-8-methyl-7-(4-amino-3,3-dimethyl-1-piperidinyl)-4-oxo-quinoline-3-carboxylic acid hydrochloride] | 0.8 | 0.8 | 1000 | 750 | 30 | 1.56 | 1.56 | 0.05 | 0.025 | 3.12 | 0.025 | 0.025 | 0.025 |  |
| Cc1c(N2CC[C@H](O)[C@H](C)C2)c(F)cc2c(=O)c(C(=O)O)cn(C3CC3)c12 (relative stereo) [Compound 93, cis-1-Cyclopropyl-6-fluoro-8-methyl-7-(4-hydroxy-3-methyl-1-piperidinyl)-1,4-dihydro-4-oxo-quinoline-3-carboxylic acid] | 0.2 (≈ 0.534 µM) | 0.8 (≈ 2.14 µM) | >1000 | >1000 |  | 0.4 (≈ 1.07 µM) | 0.4 (≈ 1.07 µM) | 0.05 (≈ 0.134 µM) | 0.2 (≈ 0.534 µM) | 3.12 (≈ 8.33 µM) | 0.05 (≈ 0.134 µM) | 0.003 (≈ 0.00801 µM) | 0.025 (≈ 0.0668 µM) | MIC [6, 13]: 0.4 µg/mL (≈ 1.07 µM); MIC [6, 14]: 3.12 µg/mL (≈ 8.33 µM); melting point: 206 to 210 °C |
| Cc1c(N2CC[C@@H](O)[C@H](C)C2)c(F)cc2c(=O)c(C(=O)O)cn(C3CC3)c12 (relative stereo) [Compound 94, trans-1-Cyclopropyl-6-fluoro-8-methyl-7-(4-hydroxy-3-methyl-1-piperidinyl)-1,4-dihydro-4-oxo-quinoline-3-carboxylic acid] | 0.2 (≈ 0.534 µM) | 0.8 (≈ 2.14 µM) | >1000 | >1000 |  | 0.4 (≈ 1.07 µM) | 0.4 (≈ 1.07 µM) | 0.1 (≈ 0.267 µM) | 0.2 (≈ 0.534 µM) | 3.12 (≈ 8.33 µM) | 0.025 (≈ 0.0668 µM) | 0.003 (≈ 0.00801 µM) | 0.025 (≈ 0.0668 µM) | MIC [6, 13]: 0.4 µg/mL (≈ 1.07 µM); MIC [6, 14]: 3.12 µg/mL (≈ 8.33 µM) |
| Cc1c(N2CC[C@H](N)[C@H](C)C2)c(F)cc2c(=O)c(C(=O)O)cn(C3CC3)c12.Cl (relative stereo) [Compound 100, cis-1-Cyclopropyl-6-fluoro-1,4-dihydro-8-methyl-7-(4-amino-3-methyl-1-piperidinyl)-4-oxo-quinoline-3-carboxylic acid hydrochloride] | 1.56 | 1.56 | 1000 | 125 | 30 | 3.12 | 1.56 | 0.1 | 0.0012 | 3.12 | 0.025 | 0.025 | 0.05 | melting point: 255 to 260 °C |
| COc1c(N2CCC(N)C(C)(C)C2)c(F)cc2c(=O)c(C(=O)O)cn(C3CC3)c12.Cl (single isomer, unassigned; (+)) [Compound 22, (+)-1-Cyclopropyl-6-fluoro-1,4-dihydro-8-methoxy-7-(4-amino-3,3-dimethyl-1-piperidinyl)-4-oxo-quinoline-3-carboxylic acid hydrochloride] |  |  | >1000 |  |  |  | 0.8 |  |  |  |  |  |  | MICs [2, 22]: 0.2 µg/mL; MICs ([2]; MRSA 032): 0.8 µg/mL; Cytotoxic concentration, V 79 CHL ([4]; hydrochloride): 1000 µg/mL; ED50 p.o., MDR S. pneumoniae 718 [5]: 20 mg/kg |
| COc1c(N2CCC(N)C(C)(C)C2)c(F)cc2c(=O)c(C(=O)O)cn(C3CC3)c12.Cl (single isomer, unassigned; (-)) [Compound 26, (−)-1-Cyclopropyl-6-fluoro-1,4-dihydro-8-methoxy-7-(4-amino-3,3-dimethyl-1-piperidinyl)-4-oxo-quinoline-3-carboxylic acid hydrochloride] | 0.8 | 0.8 | >1000 |  |  |  |  |  |  |  |  |  |  | Cytotoxic concentration, V 79 CHL ([4]; hydrochloride): >1000 µg/mL; ED50 p.o., MDR S. pneumoniae 718 [5]: 50 mg/kg |
| Cc1c(N2CCC(N)C(C)(C)C2)c(F)cc2c(=O)c(C(=O)O)cn(C3CC3)c12.Cl (single isomer, unassigned; (-)) [Compound 110, (−)-1-Cyclopropyl-6-fluoro-1,4-dihydro-8-methyl-7-(4-amino-3,3-dimethyl-1-piperidinyl)-4-oxo-quinoline-3-carboxylic acid hydrochloride] |  |  |  |  | 20 |  |  |  |  |  |  |  |  | MICs [2, 22]: 1.56 µg/mL; melting point: 300 °C; Cytotoxic concentration, J 744 Macrophage ([3]; hydrochloride): 1000 µg/mL; MIC [7]: 0.05 µg/mL; Cytotoxic concentration, V 79 CHL ([4]; hydrochloride): 250 µg/mL; MICs ([8]; E. coli ATCC 25922, hydrochloride): 0.025 µg/mL; MICs ([8]; E. faecalis ATCC 29212, hydrochloride): 0.05 µg/mL; MICs ([8]; MSSA ATCC 25923): 0.025 µg/mL; MICs ([8]; S. pneumoniae ATCC 49619, hydrochloride): 0.025 µg/mL |
| COc1c(N2C[C@@H]3CCCN[C@@H]3C2)c(F)cc2c(=O)c(C(=O)O)cn(C3CC3)c12 [Moxifloxacin, reference compound] |  |  |  |  | > 100 |  |  | 0.2 (≈ 0.498 µM) | 0.05 (≈ 0.125 µM) |  | 0.4 (≈ 0.996 µM) | 0.05 (≈ 0.125 µM) | 0.2 (≈ 0.498 µM) | MIC [1, 9]: 0.4 µg/mL (≈ 0.996 µM) |
| N[C@@H]1[C@H]2CN(c3nc4c(cc3F)c(=O)c(C(=O)O)cn4-c3ccc(F)cc3F)C[C@@H]12 [Trovafloxacin] |  |  | 500 |  |  |  |  |  |  |  |  |  |  | MIC [1, 9]: 0.4 µg/mL (≈ 0.961 µM); MIC [1, 10]: 50 µg/mL (≈ 120 µM) |
